Measurements as given in US12527739B2 (Alcon Inc., priority 2022, dated 2026).

Key:
[1] = biological target: T1, M1 muscarinic receptor (Homo sapiens, UniProt P11229); experiment: Muscarinic receptor radioligand displacement binding, M1
T1 sequence (P11229 1-460): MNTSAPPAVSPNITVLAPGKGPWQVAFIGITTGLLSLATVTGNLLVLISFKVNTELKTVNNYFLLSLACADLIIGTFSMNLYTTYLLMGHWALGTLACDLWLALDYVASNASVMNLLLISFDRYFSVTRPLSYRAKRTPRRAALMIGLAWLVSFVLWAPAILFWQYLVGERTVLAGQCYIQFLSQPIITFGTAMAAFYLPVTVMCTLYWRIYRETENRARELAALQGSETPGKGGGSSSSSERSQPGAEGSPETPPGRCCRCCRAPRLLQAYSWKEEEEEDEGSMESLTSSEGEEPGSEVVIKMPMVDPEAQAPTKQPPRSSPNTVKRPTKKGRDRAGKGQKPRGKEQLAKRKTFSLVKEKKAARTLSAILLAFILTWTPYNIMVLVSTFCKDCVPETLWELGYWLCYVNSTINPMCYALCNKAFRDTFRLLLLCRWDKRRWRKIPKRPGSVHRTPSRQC

[2] = pH adjustment of methyl atropine and benzyl atropine solutions, HPLC analysis; assay type: physicochemical; settings: for Actual concentration (HPLC) / pH after incubation (24 hours): after pH adjustment; for Initial pH: before pH adjustment
[3] = Concentration of benzyl atropine in surfactant mixtures; assay type: physicochemical
[4] = biological target: T2, M4 muscarinic receptor (Homo sapiens, UniProt P08173); experiment: Muscarinic receptor radioligand displacement binding, M4
T2 sequence (P08173 1-479): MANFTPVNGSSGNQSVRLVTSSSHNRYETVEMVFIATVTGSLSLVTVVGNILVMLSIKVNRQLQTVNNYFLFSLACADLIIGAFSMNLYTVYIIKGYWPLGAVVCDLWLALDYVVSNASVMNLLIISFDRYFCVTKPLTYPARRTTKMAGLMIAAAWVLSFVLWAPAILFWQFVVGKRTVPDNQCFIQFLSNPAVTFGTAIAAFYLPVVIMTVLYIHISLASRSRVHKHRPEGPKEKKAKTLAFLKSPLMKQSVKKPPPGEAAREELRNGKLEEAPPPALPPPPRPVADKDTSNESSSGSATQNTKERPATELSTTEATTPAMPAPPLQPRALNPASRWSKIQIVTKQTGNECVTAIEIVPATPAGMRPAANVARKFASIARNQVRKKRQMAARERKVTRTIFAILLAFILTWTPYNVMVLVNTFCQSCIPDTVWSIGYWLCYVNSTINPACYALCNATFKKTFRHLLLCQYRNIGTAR

[5] = Solubility of benzyl atropine in surfactants (single excipients); assay type: physicochemical
Protocol: Initially, single excipients were evaluated (Table 8).

[6] = Solubility screen in two simple vehicles, pH 7.4; settings: for pH of the formulation / Actual Concentration: pH 7.4; for Actual Concentration: 5 min vortexing
[7] = biological target: T3, M5 muscarinic receptor (Homo sapiens, UniProt P08912); experiment: Muscarinic receptor radioligand displacement binding, M5
T3 sequence (P08912 1-532): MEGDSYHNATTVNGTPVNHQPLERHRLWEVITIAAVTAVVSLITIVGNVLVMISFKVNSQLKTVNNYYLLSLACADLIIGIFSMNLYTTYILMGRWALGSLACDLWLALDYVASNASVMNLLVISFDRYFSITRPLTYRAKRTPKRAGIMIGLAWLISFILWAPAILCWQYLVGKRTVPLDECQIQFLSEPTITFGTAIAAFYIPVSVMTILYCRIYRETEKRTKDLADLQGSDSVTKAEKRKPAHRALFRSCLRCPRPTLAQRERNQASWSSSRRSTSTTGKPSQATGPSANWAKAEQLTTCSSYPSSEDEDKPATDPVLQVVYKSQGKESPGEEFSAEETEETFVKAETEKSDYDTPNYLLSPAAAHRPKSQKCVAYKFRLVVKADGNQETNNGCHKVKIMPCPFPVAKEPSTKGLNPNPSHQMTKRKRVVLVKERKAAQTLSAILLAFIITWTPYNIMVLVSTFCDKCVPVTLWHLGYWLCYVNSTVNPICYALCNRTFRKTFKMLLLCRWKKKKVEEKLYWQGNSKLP

[8] = test system: form deprivation-induced myopia (FDM); experiment: Form deprivation-induced myopia (FDM) chick model; assay type: in vivo
[9] = Solubilizing mixtures with citrate and acetate buffers; settings: for Actual Conc. / Final pH: 7.0% PEG-40 Stearate, 5.0% PEG-35 Castor Oil
[10] = HPβCD as a solubilizer for benzyl atropine; assay type: physicochemical; settings: pH 3.1
[11] = 0.3% Tyloxapol in Phosphate Buffer, pH 2.8
[12] = 2.0% Poloxamer 407 in Phosphate Buffer, pH 2.8
[13] = 4.0% Tween 80 in Phosphate Buffer, pH 2.9
[14] = 5.0% PEG-35 Castor Oil in Acetic Acid Buffer, pH 2.8
[15] = 5.0% PEG-35 Castor Oil in Phosphate Buffer, pH 2.8
[16] = 7.0% PEG0-40 Stearate in Phosphate Buffer, pH 3.0
[17] = 20% DMSO in Phosphate Buffer, pH 2.7
[18] = 50% Glycerol in Phosphate Buffer in Phosphate Buffer, pH 2.5
[19] = 50% Propylene Glycol in Phosphate Buffer, pH 2.9
[20] = 20 mM Citrate Buffer, pH 3.0 before API, 5.0% PEG-400
[21] = 20 mM Citrate Buffer, pH 4.65 before API, 5.0% PEG-400
[22] = 30 mM Acetate Buffer, pH 4.38 before API, 3.5% PEG-400
[23] = 30 mM Acetate Buffer, pH 4.56 before API, 3.5% PEG-400
[24] = 30 mM Acetate Buffer, pH 5.11 before API, 5.0% PEG-400
[25] = 0.43% Sodium Chloride, 10.0% HPβCD in 20 mM Phosphate Buffer
[26] = 2.21% Mannitol, 10.0% HPβCD in 20 mM Phosphate Buffer
[27] = 2.5% HPβCD in 20 mM Phosphate Buffer
[28] = 5.0% HPβCD in 20 mM Phosphate Buffer
[29] = 10.0% HPβCD in 20 mM Phosphate Buffer

CN1C2CCC1CC(OC(=O)C(CO)(Cc1ccccc1)c1ccccc1)C2 (racemic) [Benzyl Atropine, benzyl atropine]
Ki [1]: 830 nM
binding to the receptor (in words) [1]: bind weakly
Actual concentration (HPLC) ([2]; 30 mM Phosphate Buffer, pH 7.4): 0.05 mg/g
pH after incubation (24 hours) ([2]; 30 mM Phosphate Buffer, pH 7.4): 6.23
Initial pH ([2]; 30 mM Phosphate Buffer, pH 7.4): 7.7
Actual concentration (HPLC) ([2]; Phosphate Buffered Saline): 0.04 mg/g
pH after incubation (24 hours) ([2]; Phosphate Buffered Saline): 5.7
Initial pH ([2]; Phosphate Buffered Saline): 7.7
dissolution upon pH adjustment (in words) ([2]; lowered pH of the vehicle): did not fully dissolve
Actual Concentration [3, 11]: 0.19 mg/g
pH after API Dissolution [3, 11]: 7.3
Actual Concentration [3, 12]: 0.20 mg/g
pH after API Dissolution [3, 12]: 7.4
Actual Concentration [3, 13]: 0.58 mg/g
pH after API Dissolution [3, 13]: 7.3
Actual Concentration [3, 14]: 1.16 mg/g
pH after API Dissolution [3, 14]: 3.1
Actual Concentration [3, 15]: 0.68 mg/g
pH after API Dissolution [3, 15]: 7.3
Actual Concentration [3, 16]: 0.47 mg/g
pH after API Dissolution [3, 16]: 7.4
Actual Concentration [3, 17]: 0.30 mg/g
pH after API Dissolution [3, 17]: 8.1
Actual Concentration [3, 18]: 0.84 mg/g
pH after API Dissolution [3, 18]: 7.6
Actual Concentration [3, 19]: 1.56 mg/g
pH after API Dissolution [3, 19]: 8.3
Ki [4]: 600 nM
binding to the receptor (in words) [4]: bind weakly
Actual Concentration ([5]; 50% Propylene Glycol in 30 mM Phosphate Buffer, pH 7.4): 1.85 mg/g
Actual Concentration ([5]; PEG-400 (neat)): 8.01 mg/g
drug solubility ([5]; PEG-400 (neat)): 0.8%
Actual Concentration ([5]; Polypropylene Glycol (neat)): 7.86 mg/g
Actual Concentration ([5]; Propylene Glycol (neat)): 6.96 mg/g
pH of the formulation ([6]; 30 mM Phosphate Buffer): 7.9
Actual Concentration ([6]; 30 mM Phosphate Buffer): 0.29 mg/g
pH of the formulation ([6]; Phosphate Buffered Saline): 8.0
Actual Concentration ([6]; Phosphate Buffered Saline): 0.30 mg/g
dissolution in vehicle (in words) ([6]; both vehicles: 30 mM phosphate buffer pH 7.4 and phosphate-buffered saline pH 7.4): did not entirely dissolve
binding to the receptor (in words) [7]: not to bind at all
efficacy compared with atropine in FDM chick model ([8]; at approximately ten-fold lower concentration than atropine, FIG. 1 Panel B (24 nmol vs 240 nmol)): as effective as atropine
efficacy in FDM chick model ([8]; intravitreal injection day 2 and day 4, readout day 5, FIG. 1 Panel A): effective
change in refractive error (goggled eye value minus ungoggled eye value) ([8]; with respect to 5% v/v ethanol solution, FIG. 1 Panel A): significantly decreased
Actual Conc. [9, 20]: 5.73 mg/g
Final pH [9, 20]: 4.4
Actual Conc. [9, 21]: 2.38 mg/g
Final pH [9, 21]: 5.8
Actual Conc. [9, 22]: 5.49 mg/g
Final pH [9, 22]: 4.9
Actual Conc. [9, 23]: 5.42 mg/g
Final pH [9, 23]: 5.5
Actual Conc. [9, 24]: 3.59 mg/g
Final pH [9, 24]: 7.7
saturated solubility limit ([9]; from stability assessment, compound crashed out of solution over storage): ~5 mg/g
Actual Concentration [10, 25]: 5.92 mg/g
Final pH [10, 25]: 5.8
Actual Concentration [10, 26]: 5.23 mg/g
Final pH [10, 26]: 5.7
Concentration Dissolved [10, 27]: 3.53 mg/g
Final pH [10, 27]: 7.1
Concentration Dissolved [10, 28]: 4.16 mg/g
Final pH [10, 28]: 7.0
Concentration Dissolved [10, 29]: 4.51 mg/g
Final pH [10, 29]: 7.1
